# Entries after “also recorded” stand apart in the source; their conditions may differ. Where a SMILES comes first, the peptide text is derived from it.
# What was measured:
# RNAP secondary channel = RNAP secondary channel (Escherichia coli, UniProt P0A8T7); test: Fluorescence-resonance-energy-transfer experiments with a fluorochrome-labelled MccJ25 derivative; assay type: binding; conditions: preliminary results
# From the text: The results of Yuzenkova et al., (2002) J. Biol. Chem. 277, 50867-50875, although limited, also indicate that inhibition involves a multi-residue determinant within the RNAP secondary channel (five sites for substitutions conferring MccJ25-resistance). […] The RNAP secondary channel is a 25 Å long, ˜10-15 Å wide, fully enclosed tunnel through which NTPs must pass to access the RNAP active-center and NTP binding site (Zhang et al., (1999) Cell 98, 811-824; Cramer et al., (2001) Science 292, 1863-1876; and Ebright (2000) J. Mol. Biol. 304, 687-689).
# RNAP [1] = target: RNAP (Escherichia coli, UniProt P0A8T7); conditions: crude cell extracts; Delgado et al. (2001); cited from earlier work
# RNAP holoenzyme [2] = target: T1, RNAP holoenzyme (Escherichia coli, UniProt P0A8T7); test: Transcription assays (abortive initiation and elongation, lacUV5 promoter); assay type: biochemical
# T1 construct: RNAP holoenzyme was prepared from, strain XE54/pREII-NHα; made in house; host or cells: E. coli strain XE54/pREII-NHα
# Protocol: (§1) MccJ25 interferes with a process common to both abortive initiation and elongation—i.e., NTP uptake, phosphodiester-bond formation, or translocation.
# Following 15 min at 37° C., 0.5 μl 1 mg/ml heparin, was added, and, following a further 2 min at 37° C., RNA synthesis was initiated by addition of 2 μl 5 mM ApA and 125 μM (or 250 jiM, 500 μM, and 1 mM) each of [α-^32P]UTP (0.6 Bq/fmol), ATP, CTP, GTP. Following 5 min at 37° C., reactions were terminated by addition of 10 μl 80% formamide, 10 mM EDTA, 0.04% bromophenol blue, and 0.04% xylene cyanol. Products were heated 10 min at 90° C., resolved by urea-PAGE (Sambrook and Russell (2001). Molecular Cloning: A Laboratory Manual (Cold Spring Harbor, N.Y., Cold Spring Harbor Laboratory)), and quantified using an x/y storage-phosphor scanner (Storm 860; Molecular Dynamics, Inc.). Data were fit to full-competitive, partial-competitive, full-noncompetitive, partial-noncompetitive, full-uncompetitive, partial-uncompetitive, full-mixed, and partial-mixed models of inhibition using the Fit-To-Model feature of the SigmaPlot Enzyme Kinetics Module (SPSS, Inc.).
# [3] = target: T2, [Ile931]β′-RNAP holoenzyme (Escherichia coli, UniProt P0A8T7, T931I); test: Transcription assays with MccJ25-resistant RNAP derivative; assay type: biochemical
# T2 construct: hexahistidine (C); made in house; host or cells: E. coli strain 397c (rpoC ts397) transformed with a pRL663 derivative
# Protocol: as §1
# RNAP holoenzyme was prepared from, strain XE54/pREII-NHα (thi pREII-NHα; Niu et al., (1996) Cell 87, 1123-1134) using metal-ion affinity chromatography and ion-exchange chromatography (Id.). (Ile931]β′-RNAP holoenzyme was prepared from strain 397c [rpoC^ts397 argG thi lac λcI857h80St68dlac^+); Christie et al., (1996) J. Bacteriol. 178, 6991-6993) transformed with a pRL663 derivative encoding [Ile931]β′-RNAP (constructed using site-directed mutagenesis (QuikChange Site-Directed Mutagenesis Kit; Stratagene, Inc).) using identical procedures. Yields typically were 6 mg. Purities typically were >95%.
# Following 15 min at 37° C., 0.5 μl 1 mg/ml heparin, was added, and, following a further 2 min at 37° C., RNA synthesis was initiated by addition of 2 μl 5 mM ApA and 125 μM (or 250 jiM, 500 μM, and 1 mM) each of [α-^32P]UTP (0.6 Bq/fmol), ATP, CTP, GTP. […] Products were heated 10 min at 90° C., resolved by urea-PAGE (Sambrook and Russell (2001). Molecular Cloning: A Laboratory Manual (Cold Spring Harbor, N.Y., Cold Spring Harbor Laboratory)), and quantified using an x/y storage-phosphor scanner (Storm 860; Molecular Dynamics, Inc.). […]
# RNAP [4] = test: Cross-resistance with rifampicin; conditions: unpublished data
# RNAP holoenzyme [5] = target: T1, RNAP holoenzyme; test: Electrophoretic mobility shift assays (open-complex formation, lacUV5 promoter); assay type: biochemical; conditions: MccJ25 at 1, 10, or 100 μM
# Protocol: Following 15 min at 37° C., 0.5 μl 1 mg/ml heparin was added (to disrupt non-specific complexes (Cech and McClure (1980) Biochem. 19, 2440-2447)), and, following a further 2 min at 37° C., reaction mixtures were applied to 5% polyacrylamide slab gels (30:1 acrylamide/bisacrylamide; 6×9×0.1 cm) and electrophoresed in 90 mM Tris-borate (pH 8.0) and 0.2 mM EDTA (20 V/cm; 30 mm at 37° C.) and analyzed using an x/y fluorescence scanner (Storm 860; Molecular Dynamics, Inc.).
# [6] = MccJ25 at 1, 10, or 100 μM, 5 min at 37° C.
smiles,measurement,setting,value
"CC[C@H](C)[C@H](NC(=O)CNC(=O)[C@@H](NC(=O)[C@H](Cc1ccccc1)NC(=O)[C@H](Cc1ccc(O)cc1)NC(=O)[C@@H]1CCC(=O)NCC(=O)NCC(=O)N[C@@H](C)C(=O)NCC(=O)N[C@@H](Cc2c[nH]cn2)C(=O)N[C@@H](C(C)C)C(=O)N2CCC[C@H]2C(=O)N1)C(C)C)C(=O)NCC(=O)N[C@H](C(=O)N1CCC[C@H]1C(=O)N[C@H](C(=O)N[C@@H](CO)C(=O)N[C@@H](Cc1ccccc1)C(=O)N[C@@H](Cc1ccc(O)cc1)C(=O)NCC(=O)O)[C@@H](C)CC)[C@@H](C)O [MccJ25] (HELM PEPTIDE1{G.G.A.G.H.V.P.E.Y.F.V.G.I.G.T.P.I.S.F.Y.G}$PEPTIDE1,PEPTIDE1,1:R1-8:R3$$$V2.0)",binding site on RNAP,RNAP secondary channel,binds within the RNAP secondary channel
same,inhibition of RNAP-dependent transcription,RNAP [1],inhibits
same,inhibition of formation of abortive products (7 nt and 8 nt RNA species),RNAP holoenzyme [2]; [6],inhibits
same,inhibition of formation of the full-length product (26 nt RNA species),RNAP holoenzyme [2]; [6],inhibits
same,NTP-concentration dependence of inhibition,"RNAP holoenzyme [2]; NTP 12.5, 25, 50 and 100 μM",NTP-concentration-dependent
same,mode of inhibition,"RNAP holoenzyme [2]; with respect to NTPs, 7-mer and 8-mer abortive products",partial competitive
same,inhibition of transcription upon substitution of residue 931 of the RNAP β′ subunit (Thr931→Ile),[3],overcome completely
same,cross-resistance with rifampicin,RNAP [4],do not exhibit cross-resistance
same,effect on formation of open complex,RNAP holoenzyme [5],no effect; also recorded: does not inhibit

# Source: patent publication US8575306B2, “Target and method for inhibition of bacterial RNA polymerase” (Rutgers, The State University of New Jersey, priority 2002, dated 2013)
